Assay results reported in patent US20040259948A1, “Reciprocal regulation of inflammation and lipid metabolism by liver X receptors” (priority 2003, published 2004).

What was measured:
[1] = system: Thioglycolate-elicited peritoneal macrophages; assay: DNA microarray analysis of LPS-activated macrophages; format: cell-based, mice; conditions: 2 μM 18 h, then 100 ng/ml LPS 6 h
Description: DNA microarrays were used to further examine the effect of LXR activation on LPS-induced gene transcription. […] Cells were harvested 6 hours after LPS stimulation and total RNA from these samples was used to probe Affymetrix U74Av2 arrays. The array data were analyzed using GeneSpring software to identify genes regulated by the ligand in the cells. […] Genes involved in inflammation or lipid metabolism were selected based on ligand-dependent changes in expression in the cells. […] DNA microarray analysis. […] Total RNA was reverse transcribed using a T7-(dT)24 primer (Genset Corp.). Biotin-labeled cRNA was generated using the Bioarray High Yield Transcript Labeling Kit (ENZO). Samples were hybridized to single Affymetrix Murine U74Av2 microarrays and visualized by the PAN Facility at Stanford University. Data was analyzed using GeneSpring and GeneChip Analysis Suite software (Affymetrix). Only those results determined by the software to represent significant expression differences in the presence or absence of ligand are presented. Positive results were defined as ligand-dependent changes in expression in wild-type cells.

[2] = system: Thioglycolate-elicited murine peritoneal macrophages; assay: Expression of NF-κB target genes in LPS-treated macrophages (northern blot, real-time quantitative PCR); format: cell-based
Description: LPS is an established inducer of the NF-κB signaling pathway in macrophages. Several genes inhibited by LXR ligands in the array studies above are established targets of NF-κB. To further investigate the role of LXRs in NF-κB-dependent gene expression, we analyzed expression of NF-κB target genes in peritoneal macrophages from wild-type mice. […] Expression of NF-κB target genes was determined by northern blot (A) or by real-time quantitative PCR assays (B). 36B4 was used as a control for RNA loading and integrity. […] RNA and protein analysis. Total RNA was extracted using Trizol reagent (Life Technologies, Inc.). Northern blot analysis was carried out as described using radiolabeled cDNA probes (Tontonoz, P. et al. 1998 Cell 93:241-252). Real-time quantitative PCR (TaqMan) analysis was performed using an Applied Biosystems 7700 sequence detector. Two-step real-time PCR was performed as described (Joseph, S. B. et al. 2002 J Biol Chem 277:11019-11025). The primers and probes used are as follows: […]

C57B1/6 mice = assay: Murine model of irritant contact dermatitis (TPA-treated ear); format: in vivo; conditions: topical 20 μl of 10 mM at 45 min and 4 h post-TPA; 18 h; relative to vehicle-treated ear
Description: The effects of LXR ligands in both acute and chronic inflammatory contexts were evaluated. First, the effects of LXR agonists in a murine model of irritant contact dermatitis (Sheu, M. Y. et al. 2002 J Invest Dermatol 118:94-101) were studied. Ears of C57B1/6 mice (n=5 per group) were treated topically with 12-O-tetradecanoylphorbol-13-acetate (TPA) (left ear) or with vehicle (right ear). […] Thickness and weight of 6-mm punch biopsies were determined for each group after 18 h TPA treatment and are presented relative to vehicle-treated ear. […] Analysis of hematoxylin and eosin (H&E) stained sections of the TPA-treated ears confirmed a reduction in edema and inflammatory infiltrate by LXR agonist. Thus, two structurally unrelated LXR agonists have anti-inflammatory activity in a model of cutaneous inflammation.
Animals. Mice on a mixed background (C57B1/6 and 129v) and Apoe^−/− mice on a C57B1/6 background were maintained on standard chow. […] Irritant contact dermatitis was induced as described (Sheu, M. Y. et al. 2002 J Invest Dermatol 118:94-101). Briefly, 10 μl of 0.03% 12-O-tetradecanoylphorbol-13-acetate (TPA) in acetone was applied to the left ears of male mice. The right ears were treated with vehicle alone. […] After 18 h of TPA treatment, the thickness and weight of 6-mm punch biopsies were determined. Statistical analysis was performed using Student's t-test. Experiments were conducted in accordance of the Animal Research Committee of the University of California, Los Angeles.

[3] = pretreated 18 h, 100 ng/ml LPS 3 h and 6 h, northern blot
[4] = pretreated 18 h, 100 ng/ml LPS 6 h, real-time quantitative PCR

O=C(O)Cc1cccc(OCCCN(Cc2cccc(C(F)(F)F)c2Cl)CC(c2ccccc2)c2ccccc2)c1 [GW3965]
expression of cluster of genes of macrophage innate immune response (iNOS, COX-2, IL-6, IL-1β, G-CSF, MCP-1, MCP-3, MIP-1β, IP-10, MMP-9) [1]: inhibited
expression of genes involved in lipid metabolism (incl. Abca1) [1]: most highly induced
expression of genes involved in other cellular processes [1]: not significantly altered
Change: Apoptosis inhibitor 2 ([1]; apoptosis gene): 1.10
Change: Apoptosis inhibitor 3 ([1]; apoptosis gene): 0.83
Change: Apoptosis signal-regulating kinase 1 ([1]; apoptosis gene): 0.99
Change: Apoptosis-inducing factor AIF (Aif) ([1]; apoptosis gene): 0.83
Change: Bc1-10 protein ([1]; apoptosis gene): 1.13
Change: Bc12-associated X protein ([1]; apoptosis gene): 1.15
Change: Bc12-like ([1]; apoptosis gene): 0.80
Change: Bc12 homologous antagonist/killer ([1]; apoptosis gene): 0.94
Change: Caspase 2 ([1]; apoptosis gene): 1.10
Change: Caspase 3, apoptosis related cysteine protease ([1]; apoptosis gene): 1.40
Change: Caspase 7 ([1]; apoptosis gene): 0.94
Change: Caspase 9 ([1]; apoptosis gene): 0.79
Change: Caspase 11 ([1]; apoptosis gene): 0.92
Change: E1B 19 K/Bc1-2-binding protein homolog (Nip3) ([1]; apoptosis gene): 1.14
Change: Avian reticuloendotheliosis viral (v-rel) oncogene related B ([1]; cell-cycle gene): 1.21
Change: Cell division cycle 42 ([1]; cell-cycle gene): 1.06
Change: Cyclin 1 ([1]; cell-cycle gene): 1.05
Change: Cyclin B2 ([1]; cell-cycle gene): 0.68
Change: Cyclin F ([1]; cell-cycle gene): 0.72
Change: Cyclin G2 ([1]; cell-cycle gene): 0.83
Change: Cyclin dependent kinase inhibitor 2B (Cdkn2b) ([1]; cell-cycle gene): 1.15
Change: Cyclin-dependent kinase 5 ([1]; cell-cycle gene): 1.00
Change: Cyclin-dependent kinase inhibitor 1A (P21) ([1]; cell-cycle gene): 0.85
Change: Cyclin-dependent kinase inhibitor 1C (P57) ([1]; cell-cycle gene): 1.28
Change: Early growth response 2 ([1]; cell-cycle gene): 0.96
Change: Growth arrest specific 1 ([1]; cell-cycle gene): 0.91
Change: Growth arrest specific 2 ([1]; cell-cycle gene): 0.92
Change: Growth arrest specific 7 ([1]; cell-cycle gene): 1.22
Change: Guanine Nucleotide Regulatory Protein ([1]; cell-cycle gene): 1.12
Change: Met proto-oncogene ([1]; cell-cycle gene): 1.12
Change: Proliferating cell nuclear antigen ([1]; cell-cycle gene): 1.13
receptor-independent induction of IL-6 [2]: modest receptor-independent induction
receptor-independent induction of MCP-1 [2]: modest receptor-independent induction
iNOS mRNA expression ([2]; LPS, FIG. 3a, receptor-dependent): inhibition
COX-2 expression [2, 3]: effective inhibitors
lκBα expression [2, 3]: effective inhibitors
IL1-receptor antagonist (IL-1RN) expression [2, 4]: effective inhibitors
IL-1β expression [2, 4]: effective inhibitors
IL-6 expression [2, 4]: effective inhibitors
MCP-1 expression [2, 4]: effective inhibitors
ear thickness (C57B1/6 mice): reduced
ear weight (6-mm punch biopsies) (C57B1/6 mice): reduced
